This passage reports Activity and Survival results from ChEMBL document CHEMBL1137521, “In vivo growth inhibitory and anti-angiogenic effects of synthetic novel dienone cyclopropoxy curcumin analogs on mouse Ehrlich ascites tumor” (2007).

The test system of test [1] is Mus musculus. In words: Growth inhibition of Swiss Albino mouse bearing EAT cells assessed as increase in life span at 100 mg/kg, ip. The conditions noted are these: route intraperitoneal. Also on record: scale not given: the % may be the effect or the level left. Type of test: functional.
In test [2] the test system is Mus musculus. In words: Growth inhibition of Swiss Albino mouse bearing EAT cells assessed as decrease in ascites volume at 100 mg/kg, ip relative to control. Type of test: functional, organism-based. The arrangement: dose 100 mg/kg.
For test [3], the system named is Mus musculus. The experiment in a line: Antiangiogenic effect in Swiss Albino mouse bearing EAT cells assessed as inhibition of blood vessel formation in at 100 mg/kg, ip. Type of test: functional. The following applies: route intraperitoneal.
Test [4] deals with Mus musculus. The experiment in a line: Growth inhibition of Swiss Albino mouse bearing EAT cells assessed as reduction in cell numbers at 100 mg/kg, ip relative to control. Type of test: functional, organism-based. The arrangement: dose 100 mg/kg.
Test [5] relates to Mus musculus. The experiment in a line: Growth inhibition of Swiss Albino mouse bearing EAT cells assessed as increase in median survival time at 100 mg/kg, ip. Type of test: functional. The following applies: route intraperitoneal.
Test [6] concerns Mus musculus. In words: Growth inhibition of Swiss Albino mouse bearing EAT cells assessed as increase in life span at 100 mg/kg, ip administered on day 9 after tumor inoculation. It is filed as functional. Also on record: scale not given: the % may be the effect or the level left. The following applies: route intraperitoneal.
Test [7] is filed under the species Mus musculus. The experiment in a line: Antiangiogenic effect in Swiss Albino mouse bearing EAT cells assessed as decrease in microvessel density by CAM assay. Type of test: functional, organism-based.
In test [8] the test system is Mus musculus. In words: Growth inhibition of Swiss Albino mouse bearing EAT cells assessed as increase in life span at 100 mg/kg, ip administered on day 11 after tumor inoculation. Type of test: functional. The arrangement: scale not given: the % may be the effect or the level left. The following applies: route intraperitoneal.
For test [9], the system named is Mus musculus. In words: Growth inhibition of Swiss Albino mouse bearing EAT cells assessed as increase in life span at 100 mg/kg, ip administered on day 7 after tumor inoculation. The conditions noted are these: route intraperitoneal. Also on record: scale not given: the % may be the effect or the level left. Type of test: functional.

SMILES strings stand for the structures. Calls of active or inactive are those of the source. No cut-off for these calls is given here.

With `O=C(/C=C/c1ccc(OC2CC2)cc1)/C=C/c1ccc(OC2CC2)cc1`, the results for the Activity in the test with Mus musculus [1], with Mus musculus [3] and in the test with Mus musculus [6] were 34.4%, 4.2 and 34.4%, respectively. Moreover, the outcome in the test on Mus musculus [2], in the test with Mus musculus [4] and in the test listed under Mus musculus [7] was Active. Further, the Survival with Mus musculus [5] was determined as 24.2 days.
Take `Cc1cc(/C=C/C(=O)/C=C/c2ccc(OC3CC3)c(C)c2)ccc1OC1CC1`: the results for the Activity in the test on Mus musculus [1], in the test on Mus musculus [3] and in the test on Mus musculus [8] were 28.8%, 4.4 and 28.8%, respectively. In addition, the result with Mus musculus [2], in the test on Mus musculus [4] and in the test listed under Mus musculus [7] was Active. Further, the Survival in the test with Mus musculus [5] amounted to 23.2 days.
Consider `COc1cc(/C=C/C(=O)/C=C/c2ccc(OC3CC3)c(OC)c2)ccc1OC1CC1`, for which the Activity amounted to 48.8% with Mus musculus [1], 3 in the test with Mus musculus [3] and 48.8% in the test with Mus musculus [9]. Also, the outcome in the test on Mus musculus [2], in the test on Mus musculus [4] and in the test listed under Mus musculus [7] was Active. Further, the Survival in the test with Mus musculus [5] turned out to be 26.8 days.
For `COc1cc(/C=C/C(=O)/C=C/c2cc(OC)c(OC3CC3)c(OC)c2)cc(OC)c1OC1CC1`, the Activity in the test with Mus musculus [1] was found to be 77.7%; in the test on Mus musculus [3], 2.8. Further, the outcome in the test on Mus musculus [2], in the test on Mus musculus [4] and in the test listed under Mus musculus [7] was Active. For the same molecule, the Survival with Mus musculus [5] turned out to be 32 days.
